According to paper PMC4278210, “Sargassopenillines A–G, 6,6-Spiroketals from the Alga-Derived Fungi Penicillium thomii and Penicillium lividum” (Marine Drugs, 2014):

Columns and labels:
[1] = Radical scavenging activity against DPPH
Protocol: The experiments were performed as previously reported.

[2] = test system: oncogenic nuclear factor AP-1; test: Basal AP-1-dependent transcriptional activity, luciferase reporter in JB6 Cl41 cells; type: cell-based; details: Mus musculus; JB6 Cl41 cells with AP-1 luciferase reporter; after 12 h of treatment; read-out: inhibition of transcriptional activity of AP-1, IC50
Protocol: The effect of compounds 1–3 and 7 on the basal AP-1-dependent transcriptional activity was also studied using JB6 Cl41 cells stably expressing a luciferase reporter gene controlled by an AP-1-DNA binding sequence.
The effects of the compounds on the basal transcriptional activities of AP-1 were evaluated using the JB6 Cl41 cell line stably expressing a luciferase reporter gene controlled by an AP-1-DNA binding sequence. The experiments were performed as previously reported with slight modifications.

[3] = test system: CD-1 murine peritoneal macrophages; test: Macrophage adhesion test; type: cell-based; details: Mus musculus, 10 µM (non-toxic concentration), 2 h incubation at 37 °C
Protocol: Mice were sacrificed by cervical dislocation. Peritoneal macrophages were isolated using standard procedures. For this purpose, 3 mL of PBS (pH 7.4) was immediately injected into the peritoneal cavity and the body intensively palpated for 1–2 min. Then, the peritoneal fluid was aspirated with a syringe and transferred to Petri dishes. Petri dishes with the fluid were incubated at 37 °C for 1–2 h to facilitate attachment of peritoneal macrophages to the dish. Then, a cell monolayer was triply flushed with PBS (pH 7.4) to delete attendant lymphocytes, fibroblasts and erythrocytes. Subsequently, macrophages were removed from the surface of the dishes with a scraper and flow of a saline solution, and then placed on an ice bath until use. The working concentration of cells was usually 1–2 × 10^6 cells/mL. The number of adhered cells was estimated according to standard method with some modifications.
Twenty […] of test compound solutions (at non-toxic concentration 10 μM) and […] of macrophage suspension were added to 96-well flat-bottom plates. After incubation for 2 h at 37 °C, cells were fixed with 70% ethanol solution ([…] per well) for 15 min at RT. […] Finally, the SDS/trypan blue solution absorbance was detected spectrophotometrically at 590 nm using a plate reader. The percentage of adhered cells compared to the control level of Trypan blue absorbance was calculated. […]

[4] = Cytotoxicity towards CD-1 mouse splenocytes; type: cell-based; details: assayed up to 100 µM, read-out: cytotoxicity against splenocytes IC50
Protocol: The effect of the compounds on the cells viability was evaluated using the MTS test, which is based on the reduction of MTS into its formazan product by alive cells. Cytotoxicity towards CD-I mouse splenocytes was determined according to Freshney. Hemolytic activity towards CD-I mouse erythrocytes was determined as previously described.

IC50 [1] | SMILES | inhibition at 10 µM [3] | also measured
21.3 µM | O=C1O[C@H]([C@@H](O)CO)C(O)=C1O [Ascorbic acid, reference compound] | – | –
100 µM | Cc1c(O)cc2c(c1O)CO[C@@]1(O[C@@H](C)CC[C@@H]1O)[C@@H]2O [compound 1, sargassopenilline A] | – | –
– | CC(=O)OC1C2=C(CO[C@@]13O[C@@H](C)C[C@H](O)[C@@H]3OC(C)=O)C(=O)C(C)(OC(C)=O)C(=O)C2 (stereo partly shown) [compound 3, sargassopenilline C] | – | IC50 [2]: 15 µM
– | CC(=O)OC1C2=C(CO[C@@]13O[C@@H](C)CC[C@@H]3OC(C)=O)C(=O)C(C)=C(O)C2=O (stereo partly shown) [compound 4, sargassopenilline D] | 30 to 40% | –
50 µM | C[C@H]1C[C@H](O)C[C@@]2(CC3=C(CO2)C(=O)[C@](C)(O)[C@H](O)C3)O1 [compound 5, sargassopenilline E] | – | IC50 [4]: 38 µM
– | CC(=O)O[C@H]1CC[C@H](C)O[C@@]12OCC1=C(C[C@@H](O)[C@@](C)(O)C1=O)C2O (stereo partly shown) [compound 6, sargassopenilline F] | 30 to 40% | –
